Reference: US12622875B2, “Dosage form comprising an alkaline agent and an enteric coating layer” (Evonik Operations GmbH, priority 2019, dated 2026)
Structures can show the parent of a compound that is named as a salt. One block for each molecule: values may come before it.

What was measured:
[1] = Pantoprazole Sodium solution stability at different pH and temperature (HPLC % assay); assay type: physicochemical
[2] = Benazepril HCl API solution stability at different pH and temperature (HPLC % assay); assay type: physicochemical

% Assay of Pantoprazole Sodium ([1]; pH 1.2, 22° C., 15 min): 27%
% Assay of Pantoprazole Sodium ([1]; pH 1.2, 22° C., 30 min): 13%
% Assay of Pantoprazole Sodium ([1]; pH 1.2, 22° C., 60 min): 7%
% Assay of Pantoprazole Sodium ([1]; pH 1.2, 22° C., 120 min): 5%
% Assay of Pantoprazole Sodium ([1]; pH 1.2, 22° C., Initial): 88%
% Assay of Pantoprazole Sodium ([1]; pH 1.2, 40° C., 15 min): 17%
% Assay of Pantoprazole Sodium ([1]; pH 1.2, 40° C., 30 min): 6%
% Assay of Pantoprazole Sodium ([1]; pH 1.2, 40° C., 60 min): 4%
% Assay of Pantoprazole Sodium ([1]; pH 1.2, 40° C., 120 min): 3%
% Assay of Pantoprazole Sodium ([1]; pH 3.0, 22° C., 15 min): 32%
% Assay of Pantoprazole Sodium ([1]; pH 3.0, 22° C., 30 min): 20%
% Assay of Pantoprazole Sodium ([1]; pH 3.0, 22° C., 60 min): 5%
% Assay of Pantoprazole Sodium ([1]; pH 3.0, 22° C., 120 min): 1%
% Assay of Pantoprazole Sodium ([1]; pH 3.0, 22° C., Initial): 81%
% Assay of Pantoprazole Sodium ([1]; pH 3.0, 40° C., 15 min): 3%
% Assay of Pantoprazole Sodium ([1]; pH 3.0, 40° C., 30 min): 2%
% Assay of Pantoprazole Sodium ([1]; pH 3.0, 40° C., 60 min): 2%
% Assay of Pantoprazole Sodium ([1]; pH 3.0, 40° C., 120 min): 1%
% Assay of Pantoprazole Sodium ([1]; pH 4.5, 22° C., 15 min): 97%
% Assay of Pantoprazole Sodium ([1]; pH 4.5, 22° C., 30 min): 96%
% Assay of Pantoprazole Sodium ([1]; pH 4.5, 22° C., 60 min): 94%
% Assay of Pantoprazole Sodium ([1]; pH 4.5, 22° C., 120 min): 89%
% Assay of Pantoprazole Sodium ([1]; pH 4.5, 22° C., Initial): 98%
% Assay of Pantoprazole Sodium ([1]; pH 4.5, 40° C., 15 min): 92%
% Assay of Pantoprazole Sodium ([1]; pH 4.5, 40° C., 30 min): 89%
% Assay of Pantoprazole Sodium ([1]; pH 4.5, 40° C., 60 min): 79%
% Assay of Pantoprazole Sodium ([1]; pH 4.5, 40° C., 120 min): 64%
% Assay of Pantoprazole Sodium ([1]; pH 5.5, 22° C., 15 min): 98%
% Assay of Pantoprazole Sodium ([1]; pH 5.5, 22° C., 30 min): 92%
% Assay of Pantoprazole Sodium ([1]; pH 5.5, 22° C., 60 min): 94%
% Assay of Pantoprazole Sodium ([1]; pH 5.5, 22° C., 120 min): 88%
% Assay of Pantoprazole Sodium ([1]; pH 5.5, 22° C., Initial): 98%
% Assay of Pantoprazole Sodium ([1]; pH 5.5, 40° C., 15 min): 97%
% Assay of Pantoprazole Sodium ([1]; pH 5.5, 40° C., 30 min): 86%
% Assay of Pantoprazole Sodium ([1]; pH 5.5, 40° C., 60 min): 77%
% Assay of Pantoprazole Sodium ([1]; pH 5.5, 40° C., 120 min): 53%
Compound: COc1ccnc(C[S+]([O-])c2nc3ccc(OC(F)F)cc3[nH]2)c1OC (centres unmarked) [Pantoprazole Sodium]

% Assay of Benazepril HCl ([2]; pH 1.2, 22° C., Initial): 101%
% Assay of Benazepril HCl ([2]; pH 1.2, 40° C., 2 Hour): 100%
% Assay of Benazepril HCl ([2]; pH 1.2, 40° C., 4 Hour): 100%
% Assay of Benazepril HCl ([2]; pH 1.2, 40° C., 24 Hour): 99%
% Assay of Benazepril HCl ([2]; pH 3, 22° C., Initial): 100%
% Assay of Benazepril HCl ([2]; pH 3, 40° C., 2 Hour): 99%
% Assay of Benazepril HCl ([2]; pH 3, 40° C., 4 Hour): 99%
% Assay of Benazepril HCl ([2]; pH 3, 40° C., 24 Hour): 98%
% Assay of Benazepril HCl ([2]; pH 4, 22° C., Initial): 100%
% Assay of Benazepril HCl ([2]; pH 4, 40° C., 2 Hour): 99%
% Assay of Benazepril HCl ([2]; pH 4, 40° C., 4 Hour): 99%
% Assay of Benazepril HCl ([2]; pH 4, 40° C., 24 Hour): 98%
% Assay of Benazepril HCl ([2]; pH 7, 22° C., Initial): 100%
% Assay of Benazepril HCl ([2]; pH 7, 40° C., 2 Hour): 100%
% Assay of Benazepril HCl ([2]; pH 7, 40° C., 4 Hour): 100%
% Assay of Benazepril HCl ([2]; pH 7, 40° C., 24 Hour): 97%
% Assay of Benazepril HCl ([2]; pH 9, 22° C., Initial): 101%
% Assay of Benazepril HCl ([2]; pH 9, 40° C., 2 Hour): 99%
% Assay of Benazepril HCl ([2]; pH 9, 40° C., 4 Hour): 99%
% Assay of Benazepril HCl ([2]; pH 9, 40° C., 24 Hour): 91%
Compound: CCOC(=O)[C@H](CCc1ccccc1)N[C@H]1CCc2ccccc2N(CC(=O)O)C1=O [Benazepril HCl]
